Reference: PubChem BioAssay AID2060483 (Molecular Pharmacology Branch, DTP, NCI, 2025)

Test system: K24384-001-R-PDC complex spheroids, viability
Assay: Anticancer human tumor K24384-001-R-PDC patient-derived pancreatic adenocarcinoma cell line growth inhibition [GQUAD]
Conditions: for IC50: curve of first compound; for viability, T/C: stronger effect = lower value
Description: DNA G-quadruplex Stabilizer Agents in Combinations in Complex Spheroids
A high-throughput screen of multi-cell type tumor spheroids was designed to identify active combinations of DNA G-quadruplex stabilizer agents and targeted small molecules. Complex spheroids include a stromal component modeled by human endothelial cells (HUVEC) and fibroblasts modeled by human mesenchymal stem cells (MSCs). The concentration ranges selected for each drug and investigational agent were based upon clinically achievable concentrations if the clinical Cmax of the agent was known.
Compounds. The drugs and investigational agents: pidnarulex (CX-5461; NSC782164), APTO-253 (NSC789042), BRACO-19 (NSC847499), peposertib (NSC802822), ceralasertib (NSC780249), elimusertib (NSC800525), camonsertib (NSC841442), AZD-1390 (NSC803789), olaparib (NSC753686), talazoparib (NSC767125), ART-558 (NSC835418), sotorasib (NSC818433), MRTX-1133 (NSC836407), SN-38 (NSC673596), topotecan (NSC609699), etoposide (NSC141540), doxorubicin (NSC123127), gemcitabine (NSC613327), 5-fluorouracil (NSC19893), paclitaxel (NSC125973), vemurafenib (NSC761431), panobinostat (NSC761190), R-306465 (JNJ-16241199; NSC773264), adavosertib (NSC754352), TP-3654 (NSC805149), carboplatin (NSC241240), KSQ-4279 (NSC840948), and staurosporine (NSC755774) were obtained from the National Cancer Institute (NCI) Developmental Therapeutics Program Chemical Repository (34). The FDA-approved anticancer drug set is available from the NCI Developmental Therapeutics Program. […] The stock solutions were prepared in dimethyl sulfoxide (DMSO, Sigma-Aldrich, St. Louis, MO, cat. D2650) at 800-fold the tested concentration and stored at -70 degrees C prior to their use. All drugs and investigational agents were tested over a range starting from a high concentration at or near the clinical Cmax and decreasing in half-log increments. If the clinical Cmax for an agent had not been determined, the highest concentration tested was 10 microM.
2.3 Cell Culture. All cells were maintained in an incubator at 37 degrees C and 5% CO2 with 95% humidity. The PDC lines were cultured according to standard operating procedures established by the NCI PDMR. All PDCs were thawed and cultured in Matrigel-coated flasks prepared with a working solution of 1X Ham's F-12 nutrient mix, without supplementation (Invitrogen, cat. 11765054), 100 U/mL penicillin-streptomycin (Invitrogen, cat. 15140122), and 2.5% Matrigel (Corning Inc., cat. 354248) for the first three passages. The 857933-349-R-J2-PDC line was cultured in 6C/Colon 1B media, which includes advanced DMEM/F-12 (Thermo Fisher Scientific, cat. 12634028), 10 mM HEPES (Thermo Fisher Scientific, cat. 15630080), 1X GlutaMAX supplement (Thermo Fisher Scientific, cat. 35050061), 0.1 mg/mL primocin (InvivoGen, cat. ant-pm-2), 10% defined fetal bovine serum, heat inactivated (HyClone Laboratories Inc., cat. SH30070.03HI), 50% L-WRN conditioned media (ATCC, cat. CRL-3276), 1.25 mM N-Acetyl-L-cysteine (Sigma-Aldrich, cat. A9165), 10 mM nicotinamide (Sigma-Aldrich, cat. N0636), 1X B-27 supplement (Thermo Fisher Scientific, cat. 17504044), 1X N-2 supplement (Thermo Fisher Scientific, cat. 17502048), 10 microM Y-27632 dihydrochloride (Tocris Bioscience, cat. 1254), and 50 ng/mL human EGF recombinant protein (Thermo Fisher Scientific, cat. PHG0311). The 485176-168-R4-J1-PDC line was cultured in Panc media, which includes all 6C/Colon 1B media components plus 100 ng/mL human FGF-10 (Thermo Fisher Scientific, cat. 100-26), 500 nM SB-431542 (Selleckchem, cat. S1067), and gastrin (Tocris, cat. 3006).
[…]

[1] = second compound 0.0316 µM, first compound 0.0316 µM
[2] = second compound 0.0316 µM, first compound 0.1 µM
[3] = second compound 0.0316 µM, first compound 0.316 µM
[4] = second compound 0.0316 µM, first compound 1 µM
[5] = second compound 0.0316 µM, first compound 3.16 µM
[6] = second compound 0.0316 µM, first compound 10 µM
[7] = second compound 0.1 µM, first compound 0.0316 µM
[8] = second compound 0.1 µM, first compound 0.1 µM
[9] = second compound 0.1 µM, first compound 0.316 µM
[10] = second compound 0.1 µM, first compound 1 µM
[11] = second compound 0.1 µM, first compound 3.16 µM
[12] = second compound 0.1 µM, first compound 10 µM
[13] = second compound 0.316 µM, first compound 0.0316 µM
[14] = second compound 0.316 µM, first compound 0.1 µM
[15] = second compound 0.316 µM, first compound 0.316 µM
[16] = second compound 0.316 µM, first compound 1 µM
[17] = second compound 0.316 µM, first compound 3.16 µM
[18] = second compound 0.316 µM, first compound 10 µM
[19] = second compound 1 µM, first compound 0.0316 µM
[20] = second compound 1 µM, first compound 0.1 µM
[21] = second compound 1 µM, first compound 0.316 µM
[22] = second compound 1 µM, first compound 1 µM
[23] = second compound 1 µM, first compound 3.16 µM
[24] = second compound 1 µM, first compound 10 µM
[25] = second compound 3.16 µM, first compound 0.0316 µM
[26] = second compound 3.16 µM, first compound 0.1 µM
[27] = second compound 3.16 µM, first compound 0.316 µM
[28] = second compound 3.16 µM, first compound 1 µM
[29] = second compound 3.16 µM, first compound 3.16 µM
[30] = second compound 3.16 µM, first compound 10 µM
[31] = second compound 10 µM, first compound 0.0316 µM
[32] = second compound 10 µM, first compound 0.1 µM
[33] = second compound 10 µM, first compound 0.316 µM
[34] = second compound 10 µM, first compound 1 µM
[35] = second compound 10 µM, first compound 3.16 µM
[36] = second compound 10 µM, first compound 10 µM
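Also: spheroids exposed to compounds for seven days.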

SMILES: CC(C)n1c(=O)n(C)c2cnc3cc(F)c(-c4ccc(OCCCN5CCCCC5)nc4)cc3c21 + CN(C)c1ccc(Nc2c3ccc(NC(=O)CCN4CCCC4)cc3nc3cc(NC(=O)CCN4CCCC4)ccc23)cc1
- IC50 (second compound 0.0316 µM): > 10000 nM
- IC50 (second compound 0.1 µM): > 10000 nM
- IC50 (second compound 0.316 µM): > 10000 nM
- IC50 (second compound 1 µM): > 10000 nM
- IC50 (second compound 3.16 µM): 9510 nM
- IC50 (second compound 10 µM): 622 nM
- viability, T/C [1]: 97.1%
- viability, T/C [2]: 82.6%
- viability, T/C [3]: 109%
- viability, T/C [4]: 116%
- viability, T/C [5]: 119%
- viability, T/C [6]: 84.1%
- viability, T/C [7]: 85.7%
- viability, T/C [8]: 101%
- viability, T/C [9]: 121%
- viability, T/C [10]: 99.4%
- viability, T/C [11]: 122%
- viability, T/C [12]: 79%
- viability, T/C [13]: 80.5%
- viability, T/C [14]: 97.2%
- viability, T/C [15]: 109%
- viability, T/C [16]: 110%
- viability, T/C [17]: 129%
- viability, T/C [18]: 86.9%
- viability, T/C [19]: 77.9%
- viability, T/C [20]: 88.7%
- viability, T/C [21]: 92.8%
- viability, T/C [22]: 118%
- viability, T/C [23]: 109%
- viability, T/C [24]: 67.3%
- viability, T/C [25]: 90.2%
- viability, T/C [26]: 89.2%
- viability, T/C [27]: 105%
- viability, T/C [28]: 95.7%
- viability, T/C [29]: 78.2%
- viability, T/C [30]: 48.7%
- viability, T/C [31]: 69.8%
- viability, T/C [32]: 70.5%
- viability, T/C [33]: 55.9%
- viability, T/C [34]: 44.7%
- viability, T/C [35]: 31%
- viability, T/C [36]: 21.5%

SMILES: CC1COCCN1c1cc(-c2ccnn2C)c2ccnc(-c3ccn[nH]3)c2n1 (centres undefined) + CN(C)c1ccc(Nc2c3ccc(NC(=O)CCN4CCCC4)cc3nc3cc(NC(=O)CCN4CCCC4)ccc23)cc1
- IC50 (second compound 0.0316 µM): 72.2 nM
- IC50 (second compound 0.1 µM): 89.1 nM
- IC50 (second compound 0.316 µM): 131 nM
- IC50 (second compound 1 µM): 111 nM
- IC50 (second compound 3.16 µM): 88.3 nM
- IC50 (second compound 10 µM): 113 nM
- viability, T/C [1]: 69.7%
- viability, T/C [2]: 41.9%
- viability, T/C [3]: 35.4%
- viability, T/C [4]: 24.4%
- viability, T/C [5]: 29.6%
- viability, T/C [6]: 32.9%
- viability, T/C [7]: 67.6%
- viability, T/C [8]: 48%
- viability, T/C [9]: 27.2%
- viability, T/C [10]: 24.9%
- viability, T/C [11]: 30.9%
- viability, T/C [12]: 31.9%
- viability, T/C [13]: 79.2%
- viability, T/C [14]: 56.4%
- viability, T/C [15]: 26.1%
- viability, T/C [16]: 23.6%
- viability, T/C [17]: 33.6%
- viability, T/C [18]: 32.3%
- viability, T/C [19]: 78.1%
- viability, T/C [20]: 52%
- viability, T/C [21]: 24.3%
- viability, T/C [22]: 28.8%
- viability, T/C [23]: 34.2%
- viability, T/C [24]: 30.6%
- viability, T/C [25]: 91.4%
- viability, T/C [26]: 44.7%
- viability, T/C [27]: 30.9%
- viability, T/C [28]: 32.5%
- viability, T/C [29]: 30.8%
- viability, T/C [30]: 24.6%
- viability, T/C [31]: 79.6%
- viability, T/C [32]: 49%
- viability, T/C [33]: 43.1%
- viability, T/C [34]: 30.6%
- viability, T/C [35]: 28.5%
- viability, T/C [36]: 31.7%
